For assay [1], the system named is N. gonorrhoeae ATCC 49226. Nature of the assay: Liquid broth MIC in Fastidious broth. It is filed as cell-based. The following applies: Neisseria gonorrhoeae, ATCC49226; N. gonorrhoeae strain ATCC 49226; Fastidious broth; read-out: Minimum Inhibitory Concentration, N. gonorrhoeae ATCC 49226. In outline: (§1)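 Colonies were swabbed from chocolate agar after 24 h growth and standardised by optical density at 600 nm. Compounds were serially diluted twofold in Fastidious broth, and bacteria added to give 5×10^5 CFU/mL. After about 24 h at 36 °C in 5% CO2, the lowest concentration allowing under 10% growth was taken as MIC.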

A further assay deals with N. gonorrhoeae WHO Z. Nature of the assay: Liquid broth MIC in Fastidious broth. It is filed as cell-based. The following applies: Neisseria gonorrhoeae, read-out: Minimum Inhibitory Concentration, N. gonorrhoeae WHO Z. In outline:
(§2)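 Mosaic-PBP2 strains grown 24 h on chocolate agar (36 °C, 5% CO2), then direct-suspended in saline and OD600-adjusted. Twofold compound dilutions in Fastidious broth inoculated at 5×10^5 CFU/mL and incubated ~24 h at 36 °C, 5% CO2. MIC read visually as lowest concentration with <10% growth versus full-growth wells.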

The next assay relates to N. gonorrhoeae WHO G. In words: Liquid broth MIC in Fastidious broth. The assay is classed as cell-based. The following applies: Neisseria gonorrhoeae; N. gonorrhoeae strain WHO G; Fastidious broth; read-out: Minimum Inhibitory Concentration, N. gonorrhoeae WHO G. In outline: as §1
The test system of a further assay is N. gonorrhoeae FA1090. In words: Liquid broth MIC in Fastidious broth. The assay is classed as cell-based. The following applies: Neisseria gonorrhoeae; N. gonorrhoeae strain FA1090; Fastidious broth; read-out: Minimum Inhibitory Concentration, N. gonorrhoeae FA1090. The essentials:
as §1

Another assay has as its system N. gonorrhoeae WHO K. Nature of the assay: Liquid broth MIC in Fastidious broth. It is filed as cell-based. The conditions noted are these: Neisseria gonorrhoeae, read-out: Minimum Inhibitory Concentration, N. gonorrhoeae WHO K. The essentials: as §2
For the next assay, the system named is N. gonorrhoeae WHO Q. In words: Liquid broth MIC in Fastidious broth. It is filed as cell-based. The following applies: Neisseria gonorrhoeae, read-out: Minimum Inhibitory Concentration, N. gonorrhoeae WHO Q. The essentials:
as §2

A further assay deals with N. gonorrhoeae WHO L. Nature of the assay: Liquid broth MIC in Fastidious broth. It is filed as cell-based. The following applies: Neisseria gonorrhoeae; N. gonorrhoeae strain WHO L; Fastidious broth; read-out: Minimum Inhibitory Concentration, N. gonorrhoeae WHO L. The essentials:
as §1

A further assay concerns N. gonorrhoeae H041. In words: Liquid broth MIC in Fastidious broth. The assay is classed as cell-based. The following applies: Neisseria gonorrhoeae, H041, read-out: Minimum Inhibitory Concentration, N. gonorrhoeae H041. In outline:
as §2

For the next assay, the target named is T1, E. coli K12 PBP3 (Escherichia coli, UniProt P0AD68).
T1 construct: made in house
T1 sequence (P0AD68 1-577): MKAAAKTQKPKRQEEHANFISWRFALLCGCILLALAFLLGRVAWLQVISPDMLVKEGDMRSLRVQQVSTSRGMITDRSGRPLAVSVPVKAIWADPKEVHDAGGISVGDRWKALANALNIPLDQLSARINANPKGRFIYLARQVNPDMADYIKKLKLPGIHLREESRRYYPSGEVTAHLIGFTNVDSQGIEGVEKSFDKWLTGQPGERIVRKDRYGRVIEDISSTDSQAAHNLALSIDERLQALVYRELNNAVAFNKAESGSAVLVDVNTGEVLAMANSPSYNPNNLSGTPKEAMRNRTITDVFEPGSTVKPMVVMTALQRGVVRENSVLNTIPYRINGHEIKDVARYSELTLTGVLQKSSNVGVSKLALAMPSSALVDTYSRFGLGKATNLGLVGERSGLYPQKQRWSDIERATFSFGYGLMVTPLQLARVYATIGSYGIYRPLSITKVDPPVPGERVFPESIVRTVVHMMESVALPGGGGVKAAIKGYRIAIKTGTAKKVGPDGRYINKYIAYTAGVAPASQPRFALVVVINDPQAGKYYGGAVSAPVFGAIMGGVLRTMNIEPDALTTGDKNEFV
Nature of the assay: biochemical. It is filed as binding. In outline:
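Fluorescence polarization (ex 490/em 520 nm) competition of inhibitors against Bocillin-FL at 0.1 μM, read up to 60 min. Final PBP levels: E. coli PBP3 1.5 μM; A. baumannii PBP2 2.5 μM, PBP3 0.2 μM in Tris pH 8.0/NaCl/glycerol/Tween 20; N. gonorrhoeae PBP2 […] in Hepes pH 8.0/NaCl/glycerol. EC50 = concentration halving PBP-bound Bocillin-FL.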

Values after ≈ are worked out from the molar mass of the structure shown.

The EC50 is the concentration that produces a half-maximal response. `O=C(O)c1cccc2c1OB(O)[C@@H](NC(=O)C(NC(=O)N1CCN(CCF)C(=O)C1=O)c1c(F)cc(O)cc1F)C2` (mixture of isomers) [Example 119, (3R)-3-(2-(2,6-difluoro-4-hydroxyphenyl)-2-(4-(2-fluoroethyl)-2,3-dioxopiperazine-1-carboxamido)acetamido)-2-hydroxy-3,4-dihydro-2H-benzo[e][1,2]oxaborinine-8-carboxylic acid]: the MIC lay within 16 to 32 µg/mL (≈ 27.7 to 55.3 µM) in assay [1]; 4 to 8 µg/mL (≈ 6.92 to 13.8 µM) in the assay on N. gonorrhoeae WHO Z; 1 to 2 µg/mL (≈ 1.73 to 3.46 µM) with N. gonorrhoeae WHO G; 0.25 to 0.5 µg/mL (≈ 0.432 to 0.865 µM) in the assay with N. gonorrhoeae FA1090; 16 to 32 µg/mL (≈ 27.7 to 55.3 µM) with N. gonorrhoeae WHO K; 16 to 32 µg/mL (≈ 27.7 to 55.3 µM) in the assay on N. gonorrhoeae WHO Q. Besides, the MIC in the assay with N. gonorrhoeae WHO L was 16 to 32 µg/mL (≈ 27.7 to 55.3 µM); with N. gonorrhoeae H041, > 64 µg/mL. The EC50 on E. coli K12 PBP3 is < 30 µM.

For `NCCN1CCN(C(=O)N[C@H](C(=O)N[C@H]2Cc3cccc(C(=O)O)c3OB2O)c2c(F)cc(O)cc2F)C(=O)C1=O` (single isomer, unassigned) [Example 110], the MIC in assay [1] was > 64 µg/mL; in the assay with N. gonorrhoeae WHO Z, > 64 µg/mL; in the assay on N. gonorrhoeae WHO G, > 64 µg/mL; in the assay on N. gonorrhoeae FA1090 it was 16 to 32 µg/mL (≈ 27.8 to 55.6 µM); in the assay on N. gonorrhoeae WHO K, > 64 µg/mL; in the assay with N. gonorrhoeae WHO Q, > 64 µg/mL. The MIC with N. gonorrhoeae WHO L and with N. gonorrhoeae H041 was > 64 µg/mL throughout. In addition, the EC50 on E. coli K12 PBP3 was in the range of 30 to 500 µM.

Turning to `NCCN1CCN(C(=O)N[C@@H](C(=O)N[C@H]2Cc3cccc(C(=O)O)c3OB2O)c2c(F)cc(O)cc2F)C(=O)C1=O` (single isomer, unassigned) [Example 111], the MIC in [1] is 16 to 32 µg/mL (≈ 27.8 to 55.6 µM); in the assay on N. gonorrhoeae WHO Z, > 64 µg/mL; in the assay on N. gonorrhoeae WHO G, 4 to 8 µg/mL (≈ 6.95 to 13.9 µM); in the assay on N. gonorrhoeae FA1090, 1 to 2 µg/mL (≈ 1.74 to 3.48 µM); with N. gonorrhoeae WHO K, > 64 µg/mL; in the assay with N. gonorrhoeae WHO Q, > 64 µg/mL. In addition, the MIC in the assay with N. gonorrhoeae WHO L and in the assay on N. gonorrhoeae H041 was > 64 µg/mL throughout. On E. coli K12 PBP3, the concentration giving a half-maximal response (EC50) was < 30 µM.

As for `NCCN1CCN(C(=O)N[C@@H](C(=O)N[C@H]2Cc3cccc(C(=O)O)c3OB2O)c2cccc(NS(N)(=O)=O)c2)C(=O)C1=O` (single isomer, unassigned) [Example 114], the MIC in assay [1] was > 64 µg/mL; in the assay with N. gonorrhoeae WHO Z, > 64 µg/mL; in the assay with N. gonorrhoeae WHO G, 16 to 32 µg/mL (≈ 25.9 to 51.8 µM); in the assay with N. gonorrhoeae FA1090, 4 to 8 µg/mL (≈ 6.48 to 13 µM); in the assay on N. gonorrhoeae WHO K, > 64 µg/mL; in the assay with N. gonorrhoeae WHO Q, > 64 µg/mL. The MIC with N. gonorrhoeae WHO L and with N. gonorrhoeae H041 was > 64 µg/mL throughout. This molecule also had an EC50 on E. coli K12 PBP3 of 30 to 500 µM.

On to `NCCN1CCN(C(=O)N[C@H](C(=O)N[C@H]2Cc3cccc(C(=O)O)c3OB2O)c2cccc(NS(N)(=O)=O)c2)C(=O)C1=O` (single isomer, unassigned) [Example 115], for which the MIC is > 64 µg/mL in assay [1]; > 64 µg/mL in the assay with N. gonorrhoeae WHO Z; > 64 µg/mL in the assay on N. gonorrhoeae WHO G; 4 to 8 µg/mL (≈ 6.48 to 13 µM) with N. gonorrhoeae FA1090; > 64 µg/mL in the assay with N. gonorrhoeae WHO K; > 64 µg/mL in the assay on N. gonorrhoeae WHO Q. Moreover, the MIC in the assay with N. gonorrhoeae WHO L and in the assay on N. gonorrhoeae H041 was > 64 µg/mL throughout. In addition, the half-maximal effective concentration (EC50) at E. coli K12 PBP3 was 30 to 500 µM.

As for `NC1(CN2CCN(C(=O)N[C@@H](C(=O)N[C@H]3Cc4cccc(C(=O)O)c4OB3O)c3c(F)cc(O)cc3F)C(=O)C2=O)CC1` (single isomer, unassigned) [Example 121], the MIC in [1] is 16 to 32 µg/mL (≈ 26.6 to 53.2 µM); with N. gonorrhoeae WHO Z, > 64 µg/mL; with N. gonorrhoeae WHO G, 16 to 32 µg/mL (≈ 26.6 to 53.2 µM); with N. gonorrhoeae FA1090 it was 1 to 2 µg/mL (≈ 1.66 to 3.33 µM); in the assay on N. gonorrhoeae WHO K it was > 64 µg/mL; in the assay with N. gonorrhoeae WHO Q, > 64 µg/mL. Moreover, the MIC with N. gonorrhoeae WHO L and in the assay on N. gonorrhoeae H041 was > 64 µg/mL each time. In addition, at E. coli K12 PBP3, the EC50 is < 30 µM.

Take `NC1(CN2CCN(C(=O)N[C@H](C(=O)N[C@H]3Cc4cccc(C(=O)O)c4OB3O)c3c(F)cc(O)cc3F)C(=O)C2=O)CC1` (single isomer, unassigned) [Example 122]: the MIC in assay [1] is > 64 µg/mL; in the assay on N. gonorrhoeae WHO Z, > 64 µg/mL; with N. gonorrhoeae WHO G, > 64 µg/mL; in the assay with N. gonorrhoeae FA1090 it was 4 to 8 µg/mL (≈ 6.65 to 13.3 µM); in the assay with N. gonorrhoeae WHO K, > 64 µg/mL; with N. gonorrhoeae WHO Q it was > 64 µg/mL. The MIC in the assay with N. gonorrhoeae WHO L and with N. gonorrhoeae H041 was > 64 µg/mL in each case. Further, the EC50 on E. coli K12 PBP3 was < 30 µM.

For the origin of these results see US20230114728A1 (Venatorx Pharmaceuticals, Inc., priority 2019, published 2023).
